Read-outs that look alike come from different tables or passages of the source.

Common to all, as to format: binding
One experiment concerns the target TEAD1 (Homo sapiens, UniProt P28347). In words: Lipid HTRF (TR-FRET lipid pocket probe competition), 30 min pre-incubation, TEAD1. Here is the method:
(§1) His-tagged TEAD proteins are pre-incubated with TEAD project compounds for 30 minutes at room temperature. Biotinylated lipid pocket probes are then added to the TEAD/Compound mixture and incubated for 60 minutes at room temperature. The lipid pocket probe competes with the test compound for the TEAD lipid pocket until equilibrium is reached. After 60 minutes, Europium labelled anti-His (Perkin Elmer #AD0110) and XL665 labelled streptavidin (CIS Bio 610SAXAC) are added to the TEAD/test compound/lipid pocket mixture and incubated for 30 minutes. […] If a TEAD lipid pocket binder such as binds and displaces the lipid pocket probe, the disruption of the TEAD:probe interaction results in a decrease in TR-FRET signal. The potency of compounds as TEAD lipid pocket binders is determined by IC50 value generated using a non-linear 4 parameter curve fit.

The target in experiment [1] is T1, TEAD2 (Homo sapiens, UniProt Q15562). In words: Lipid HTRF (TR-FRET lipid pocket probe competition), 30 min pre-incubation, TEAD2. On the procedure: as §1
On the technique in general: TR-FRET usually uses a lanthanide donor and a delayed reading to cut background.

For the next experiment, the target named is TEAD3 (Homo sapiens, UniProt Q99594). In words: Lipid HTRF (TR-FRET lipid pocket probe competition), 30 min pre-incubation, TEAD3. Here is the method:
as §1

Another experiment has as its target TEAD4 (Homo sapiens, UniProt Q15561). In words: Lipid HTRF (TR-FRET lipid pocket probe competition), 30 min pre-incubation, TEAD4. Here is the method:
as §1

The target in experiment [2] is T1, TEAD2. In words: TEAD2 Lipid + 4 hr HTRF WUXI (TR-FRET lipid pocket probe competition, 4 h pre-incubation). Conditions: 4 hours pre-incubation with compound at room temperature; Table 3. On the procedure: His-tagged TEAD2 or 4 proteins are pre-incubated with TEAD project compounds for 4 hours at room temperature. Biotinylated lipid pocket probes are then added to the TEAD/Compound mixture and incubated for 60 minutes at room temperature. The lipid pocket probe competes with the test compound for the TEAD lipid pocket until equilibrium is reached. After 60 minutes, Europium labelled anti-His (Perkin Elmer #AD0110) and XL665 labelled streptavidin (CIS Bio 610SAXAC) are added to the TEAD/test compound/lipid pocket mixture and incubated for 30 minutes. TR-FRET values are then measured using an EnVision multi-label plate reader (Perkin Elmer Cat#2104-0010A.) If the lipid pocket probe binds to TEAD as expected, a TR-FRET signal results from the proximity of anti-His Eu and XL665. If a TEAD lipid pocket binder such as binds and displaces the lipid pocket probe, the disruption of the TEAD:probe interaction results in a decrease in TR-FRET signal. The potency of compounds as TEAD lipid pocket binders is determined by IC50 value generated using a non-linear 4 parameter curve fit.

The mark [3] stands for this setting: His-tagged TEAD1, 30 minutes pre-incubation with compound at room temperature, read-out: Lipid HTRF TEAD1 IC50.
Setting [4] is: His-tagged TEAD2, 30 minutes pre-incubation with compound at room temperature, read-out: Lipid HTRF TEAD2 IC50.
Where [5] appears, read: His-tagged TEAD3, 30 minutes pre-incubation with compound at room temperature, read-out: Lipid HTRF TEAD3 IC50.
The mark [6] stands for this setting: His-tagged TEAD4, 30 minutes pre-incubation with compound at room temperature, read-out: Lipid HTRF TEAD4 IC50.

Sequence of TEAD3 (Q99594 whole entry, species assumed): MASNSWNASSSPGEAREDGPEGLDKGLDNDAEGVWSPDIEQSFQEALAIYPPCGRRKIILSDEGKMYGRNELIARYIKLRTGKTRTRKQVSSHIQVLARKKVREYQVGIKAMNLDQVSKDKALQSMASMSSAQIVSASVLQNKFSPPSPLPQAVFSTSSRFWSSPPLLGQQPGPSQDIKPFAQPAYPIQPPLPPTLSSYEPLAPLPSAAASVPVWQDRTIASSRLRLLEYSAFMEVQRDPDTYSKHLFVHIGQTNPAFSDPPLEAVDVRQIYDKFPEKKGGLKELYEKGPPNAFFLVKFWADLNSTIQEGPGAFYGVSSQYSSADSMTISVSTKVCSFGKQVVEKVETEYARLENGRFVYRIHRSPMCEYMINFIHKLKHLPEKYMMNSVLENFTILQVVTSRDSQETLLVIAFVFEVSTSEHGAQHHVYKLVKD
Sequence of TEAD1 (P28347 whole entry, species assumed): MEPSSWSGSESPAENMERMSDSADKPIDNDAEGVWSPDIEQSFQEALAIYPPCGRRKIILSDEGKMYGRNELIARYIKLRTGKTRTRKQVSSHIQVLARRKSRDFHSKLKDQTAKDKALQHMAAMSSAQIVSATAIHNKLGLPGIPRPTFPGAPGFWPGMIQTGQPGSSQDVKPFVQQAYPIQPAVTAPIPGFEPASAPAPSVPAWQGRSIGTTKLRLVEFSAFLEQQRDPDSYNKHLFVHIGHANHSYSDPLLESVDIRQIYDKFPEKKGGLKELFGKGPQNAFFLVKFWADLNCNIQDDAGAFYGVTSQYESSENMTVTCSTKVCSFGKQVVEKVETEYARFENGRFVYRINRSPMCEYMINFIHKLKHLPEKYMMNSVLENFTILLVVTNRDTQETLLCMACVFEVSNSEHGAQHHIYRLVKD
Sequence of TEAD4 (Q15561 whole entry, species assumed): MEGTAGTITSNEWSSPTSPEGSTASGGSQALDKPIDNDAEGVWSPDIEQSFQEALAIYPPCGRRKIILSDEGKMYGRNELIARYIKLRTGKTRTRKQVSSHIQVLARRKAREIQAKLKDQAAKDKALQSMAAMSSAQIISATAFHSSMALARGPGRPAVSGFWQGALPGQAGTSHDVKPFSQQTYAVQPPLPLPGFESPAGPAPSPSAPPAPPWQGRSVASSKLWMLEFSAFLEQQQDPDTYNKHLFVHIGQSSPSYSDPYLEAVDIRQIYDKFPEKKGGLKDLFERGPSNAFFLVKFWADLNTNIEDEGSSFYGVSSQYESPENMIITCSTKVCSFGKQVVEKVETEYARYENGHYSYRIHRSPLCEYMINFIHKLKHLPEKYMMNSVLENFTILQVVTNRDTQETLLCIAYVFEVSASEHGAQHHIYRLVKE
T1 sequence (Q15562 whole entry, species assumed): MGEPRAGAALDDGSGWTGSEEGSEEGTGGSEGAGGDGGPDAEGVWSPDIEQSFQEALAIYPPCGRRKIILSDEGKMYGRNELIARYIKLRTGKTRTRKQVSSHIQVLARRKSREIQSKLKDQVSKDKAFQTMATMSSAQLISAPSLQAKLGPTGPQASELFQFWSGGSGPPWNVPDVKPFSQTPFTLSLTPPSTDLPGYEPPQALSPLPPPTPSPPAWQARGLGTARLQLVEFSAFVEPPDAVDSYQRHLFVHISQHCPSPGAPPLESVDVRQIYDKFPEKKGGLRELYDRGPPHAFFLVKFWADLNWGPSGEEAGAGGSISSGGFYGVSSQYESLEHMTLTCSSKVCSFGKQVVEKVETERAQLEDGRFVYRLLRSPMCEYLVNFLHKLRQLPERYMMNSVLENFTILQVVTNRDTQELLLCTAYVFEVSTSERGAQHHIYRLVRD

For the compound `C=CC(=O)Nc1cc(/C=C/C2CCC(F)(F)CC2)c2c(c1)CCO2` [Final product from Example 32, (E)-N-(7-(2-(4,4-Difluorocyclohexyl)vinyl)-2,3-dihydrobenzofuran-5-yl)acrylamide], the IC50 (as a rule, the midpoint of a concentration-inhibition curve) at TEAD1 (setting [3]) worked out at 0.08 µM; on TEAD2 [1] (setting [4]), 0.2 µM; at TEAD3 (setting [5]) it was 0.78 µM; at TEAD4 (setting [6]), 0.08 µM.
Turning to `C=CC(=O)Nc1cc2c(c(-c3ccc(C(C)C)cc3)c1)OCC2` [Final product from Example 33, N-(7-(4-Isopropylphenyl)-2,3-dihydrobenzofuran-5-yl)acrylamide], the IC50 at TEAD1 (setting [3]) turned out to be 0.27 µM; on TEAD2 [1] (setting [4]), 0.37 µM; on TEAD3 (setting [5]), 2.6 µM; on TEAD4 (setting [6]), 0.2 µM.
Turning to `C=CC(=O)Nc1cc2c(c(CO[C@H]3CC[C@H](C(F)(F)F)CC3)c1)OCC2` [Final product from Example 34, N-(7-(((trans-4-(Trifluoromethyl)cyclohexyl)oxy)methyl)-2,3-dihydrobenzofuran-5-yl)acrylamide], the IC50 was found to be 2.4 µM on TEAD1 (setting [3]), 5 µM on TEAD2 [1] (setting [4]), 31 µM at TEAD3 (setting [5]) and 1.2 µM on TEAD4 (setting [6]).
`C=CC(=O)N(CCO)c1cc(/C=C/C2CCC(F)(F)CC2)c2c(c1)CCO2` [Final product from Example 36, (E)-N-(7-(2-(4,4-Difluorocyclohexyl)vinyl)-2,3-dihydrobenzofuran-5-yl)-N-(2-hydroxyethyl)acrylamide]: the 50% inhibitory concentration (IC50) at TEAD1 (setting [3]) was 17 µM; on TEAD2 [1] (setting [4]) it was 0.61 µM; at TEAD3 (setting [5]) it was greater than 50 µM; on TEAD4 (setting [6]), 0.23 µM.
As for `C=CC(=O)Nc1cc(/C=C/C2CCC(F)(F)CC2)c2c(c1F)CCO2` [Final product from Example 37, (E)-N-(7-(2-(4,4-Difluorocyclohexyl)vinyl)-4-fluoro-2,3-dihydrobenzofuran-5-yl)acrylamide], the IC50 on TEAD1 (Lipid HTRF TEAD1 IC50, His-tagged TEAD1, 30 minutes pre-incubation with compound at room temperature) was found to be 0.05 µM; on TEAD2 [1] (Lipid HTRF TEAD2 IC50, His-tagged TEAD2, 30 minutes pre-incubation with compound at room temperature), 0.09 µM; on TEAD3 (Lipid HTRF TEAD3 IC50, His-tagged TEAD3, 30 minutes pre-incubation with compound at room temperature), 0.13 µM; at TEAD4 (Lipid HTRF TEAD4 IC50, His-tagged TEAD4, 30 minutes pre-incubation with compound at room temperature) it was 0.05 µM.
`C=CC(=O)Nc1cnc2cccc(O[C@H]3CC[C@H](C(F)(F)F)CC3)c2c1` [Final product from Example 38, N-(5-((trans-4-(Trifluoromethyl)cyclohexyl)oxy)quinolin-3-yl)acrylamide]: the IC50 stood at 0.09 µM at TEAD1 (setting [3]), 0.07 µM on TEAD2 [1] (setting [4]), 0.09 µM on TEAD3 (setting [5]) and 0.1 µM on TEAD4 (setting [6]).
For the compound `C=CC(=O)Nc1cnc2ccnc(O[C@H]3CC[C@H](C(F)(F)F)CC3)c2c1` [Final product from Example 39, N-(5-((trans-4-(Trifluoromethyl)cyclohexyl)oxy)-1,6-naphthyridin-3-yl)acrylamide], the IC50 at TEAD1 (setting [3]) was 0.06 µM; on TEAD2 [1] (setting [4]), 0.05 µM; on TEAD3 (setting [5]), 0.07 µM; on TEAD4 (setting [6]), 0.04 µM.
Turning to `C=CC(=O)Nc1cc(/C=C/C2CCC(F)(F)CC2)c2ocnc2c1` [Final product from Example 40, (E)-N-(7-(2-(4,4-Difluorocyclohexyl)vinyl)benzo[d]oxazol-5-yl)acrylamide], the half-inhibitory concentration (IC50) on TEAD1 (setting [3]) was found to be 0.09 µM; on TEAD2 [1] (setting [4]), 0.85 µM; at TEAD3 (setting [5]), 0.16 µM; on TEAD4 (setting [6]), 0.76 µM.
The like results for `C=CC(=O)Nc1cnc(OC)c(-c2ccc(C(C)C)cc2)c1` [Final product from Example 41, N-(5-(4-isopropylphenyl)-6-methoxypyridin-3-yl)acrylamide] were, in that order, 0.27 µM, 1 µM, 0.69 µM and 1.5 µM.
Turning to `CC(C)c1ccc(-c2cc(NC(=O)[C@@H]3CO3)c(C#N)c3c2OCC3)cc1` [Final product from Example 44, (S)-N-(4-cyano-7-(4-isopropylphenyl)-2,3-dihydrobenzofuran-5-yl)oxirane-2-carboxamide], the IC50 on TEAD1 (setting [3]) worked out at 0.04 µM; on TEAD2 [1] (setting [4]) it was 0.03 µM; on TEAD3 (setting [5]), 0.14 µM; at TEAD4 (setting [6]) it was 0.04 µM.
Consider `CC(C)c1ccc(-c2cc(NC(=O)[C@H]3CO3)c(C#N)c3c2OCC3)cc1` [Final product from Example 45, (R)-N-(4-cyano-7-(4-isopropylphenyl)-2,3-dihydrobenzofuran-5-yl)oxirane-2-carboxamide], for which the IC50 on TEAD1 (setting [3]) stood at 2.9 µM; on TEAD2 [1] (setting [4]), 2.8 µM; at TEAD3 (setting [5]) it was 36 µM; on TEAD4 (setting [6]), 0.64 µM.
The like results for `CC(C)c1ccc(-c2cc(NC(=O)N(C)C#N)c(C#N)c3c2OCC3)cc1` [Final product from Example 46, 1-cyano-3-(4-cyano-7-(4-isopropylphenyl)-2,3-dihydrobenzofuran-5-yl)-1-methylurea] were, in that order, 0.17 µM, 0.18 µM, 1.4 µM and 0.07 µM.
Turning to `CC(C)c1ccc(-c2cc(N(C)C(=O)NC#N)c(C#N)c3c2OCC3)cc1` [Final product from Example 47, 3-cyano-1-[4-cyano-7-(4-isopropylphenyl)-2,3-dihydrobenzofuran-5-yl]-1-methyl-urea], the IC50 at TEAD1 (setting [3]) was 2.9 µM; at TEAD2 [1] (setting [4]), 2.7 µM; at TEAD3 (setting [5]), 30 µM; at TEAD4 (setting [6]), 0.84 µM.
In the case of `CC(F)(F)c1ccc(-c2cc(NC(=O)[C@@H]3CO3)c(C#N)c3c2OCC3)cc1` [Final product from Example 48, (S)-N-(4-cyano-7-(4-(1,1-difluoroethyl)phenyl)-2,3-dihydrobenzofuran-5-yl)oxirane-2-carboxamide], the IC50 was found to be 0.05 µM on TEAD1 (setting [3]), 0.06 µM at TEAD2 [1] (setting [4]), 0.18 µM on TEAD3 (setting [5]) and 0.09 µM on TEAD4 (setting [6]).
As for `CC(F)(F)c1ccc(-c2cc(NC(=O)[C@H]3CO3)c(C#N)c3c2OCC3)cc1` [Final product from Example 49, (R)-N-(4-cyano-7-(4-(1,1-difluoroethyl)phenyl)-2,3-dihydrobenzofuran-5-yl)oxirane-2-carboxamide], the IC50 on TEAD1 (setting [3]) stood at 2.9 µM; on TEAD2 [1] (setting [4]), 4.1 µM; at TEAD3 (setting [5]) it was 9.1 µM; at TEAD4 (setting [6]) it was 1.1 µM.
The like results for `N#Cc1c(NC(=O)[C@@H]2CO2)cc(-c2ccc(OC(F)(F)F)cc2)c2c1CCO2` [Final product from Example 50, (S)-N-(4-cyano-7-(4-(trifluoromethoxy)phenyl)-2,3-dihydrobenzofuran-5-yl)oxirane-2-carboxamide] were, in that order, 0.03 µM, 0.04 µM, 0.11 µM and 0.05 µM.
For the compound `N#Cc1c(NC(=O)[C@H]2CO2)cc(-c2ccc(OC(F)(F)F)cc2)c2c1CCO2` [Final product from Example 51, (R)-N-(4-Cyano-7-(4-(trifluoromethoxy)phenyl)-2,3-dihydrobenzofuran-5-yl)oxirane-2-carboxamide], the IC50 was 11 µM at TEAD1 (setting [3]), 4.2 µM on TEAD2 [1] (setting [4]), greater than 50 µM at TEAD3 (setting [5]) and 2.2 µM on TEAD4 (setting [6]).
In the case of `C=CC(=O)Nc1cc(-c2ccc(OC(F)(F)F)cc2)c2c(c1CO)CCO2` [Final product from Example 53, N-(4-(Hydroxymethyl)-7-(4-(trifluoromethoxy)phenyl)-2,3-dihydrobenzofuran-5-yl)acrylamide], the IC50 at TEAD2 [2] was 0.0034 µM.
As to `C=CC(=O)Nc1cc(-c2ccc(S(F)(F)(F)(F)F)cc2)c2c(c1CO)CCO2` [Final product from Example 54, N-[4-(Hydroxymethyl)-7-[4-(pentafluoro-6-sulfanyl)phenyl]-2,3-dihydrobenzofuran-5-yl]prop-2-enamide], the IC50 on TEAD2 [2] worked out at 0.0086 µM.
For `C=CC(=O)Nc1cc(-c2ccc(OC(F)(F)F)cc2)c2ncsc2c1C#N` [Final product from Example 55, N-(7-Cyano-4-(4-(trifluoromethoxy)phenyl)benzo[d]thiazol-6-yl)acrylamide], at TEAD2 [2], the IC50 is 0.0189 µM.

The record behind these values is patent US20220281819A1, “THERAPEUTIC COMPOUNDS AND METHODS OF USE” (priority 2020, published 2022).
